According to US10752596B2, “Nitrogen-containing heteroaryl compound and pharmaceutical use thereof” (JAPAN TOBACCO INC., priority 2017, dated 2020):

molecular target: human GLUT9 (Homo sapiens (Human), UniProt Q9NRM0); test: Evaluation of human GLUT9 inhibitory activity ([14C] uric acid uptake in human GLUT9 expressing HEK293T cells transduced with Uricase/Hyper); format: cell-based; details: final 300 μM uric acid, 6 min, human GLUT9 stably expressing HEK293T cells, read-out: humans GLUT9 inhibitory activity (IC50 value (μM))
Method: A method for measuring GLUT9 inhibitory activity using human GLUT9 expressing cells transduced with Uricase/Hyper is shown hereinafter. GLUT9 inhibitory activity ([…]) of the test compound was calculated based on the intracellular uptake amount of labeled uric acid ([^14C] uric acid) transported by GLUT9.
1. Preparation of Human GLUT9 Expression Plasmid
Human GLUT9S coding region (NM_001001290.1) was amplified by PCR method using PrimeSTAR MAX DNA Polymerase (Takara Bio). The obtained PCR product was subjected to agarose gel electrophoresis, and the desired size of PCR product was purified by QIAquick Gel Extraction Kit (QIAGEN). Next, pEBMulti-Bsd vector (Wako Pure Chemical Industries, Ltd.) was subjected to digestion using restriction enzymes SalI and EcoR V, and linked to the PCR product containing GLUT9S by In-Fusion reaction using In-Fusion HD Cloning Kit (Takara Bio). XL10-Gold Competent Cells (Agilent Technologies) were transformed in In-Fusion reaction solution, and the obtained transfectants were cultured with shaking overnight in LB medium to which Blasticidin S HCl (Thermo Fisher Scientific) was added. Human GLUT9 expression plasmid DNA was prepared from the collected transfectants using EndoFree Plasmid Kit (Takara Bio).
2. Establish of Human GLUT9 Stably Expressing Cell
HEK293T cells (American Type Culture Collection, DS Pharma Biomedical) were seeded in a 6 well plate at 1×10^6 cells/well. Next day, human GLUT9 expression plasmid was transfected by using Lipofectamine 3000 Reagent (Thermo Fisher Scientific) as follows. Lipofectamine 3000 Reagent (5 μL) was diluted with Opti-MEM (125 μL, Thermo Fisher Scientific). Separately, plasmid DNA (2.5 μg) was diluted with Opti-MEM (125 μL), and P3000 Reagent (5 μL) was added thereto. The obtained solution was mixed with the previously obtained diluted solution, and the mixture was left stand at room temperature for 5 min, and added to the cells. Next day, the transfected cells were diluted and reseeded in a 6 well plate at 4×10^5 cells/well, and drug selection was performed in the presence of 30 μg/mL of Blasticidin S HCl, and thereby, Blasticidin-resistant human GLUT9 stably expressing cell line was established. Mock cells were prepared by introducing pEBMulti-Bsd vector into HEK293T cells in a similar manner.
3. Preparation of Uricase/Hyper Expression Plasmid
Uricase/Hyper expression plasmid was prepared by linking the coding regions of Aspergillus Flavus-derived uricase gene and pHyPer-Cyto vector (Evrogen) HyPer gene to the pEBMulti-Hyg vector (Wako Pure Chemical Industries, Ltd.) and then introducing it. The preparation method was performed by reference to Gout and Nucleic Acid Metabolism 2013, 37(2), 93-101, and seven repeated linker sequence of glycine-glycine-glycine-serine was prepared herein.
4. Preparation of Human GLUT9-Uricase/Hyper Coexpressing Cell
Human GLUT9 stably expressing cells were seeded at 3.6×10^7 cells per 225 cm^2 flask. Next day, Uricase/Hyper expression plasmid was transfected by using Lipofectamine 3000 Reagent as follows. Lipofectamine 3000 Reagent (40 μL) was diluted with Opti-MEM (750 μL). Separately, plasmid DNA (20 μg) was diluted with Opti-MEM (750 μL), and P3000 Reagent (40 μL) was added thereto. The obtained solution was mixed with the previously obtained diluted solution, and the mixture was left stand at room temperature for 5 min, and added to the cells. Next day, transfected cells were collected to prepare human GLUT9-Uricase/Hyper coexpressing cells.
5. Evaluation of GLUT9 Inhibitory Activity
Uricase/Hyper transiently-transfected human GLUT9 stably expressing cells or mock cells (blank) were seeded in a 96 well plate (Corning) at 1.6×10^5 cells/well, and cultured overnight at 37° C., 5% CO2. D-MEM/high glucose (Wako Pure Chemical Industries, Ltd.) containing 10% Fetal Bovine Serum (Lifetechnology) and 100 units/ml penicillin/100 μg/ml streptomycin (GIBCO) was used as a medium.

human GLUT9, sequence (Q9NRM0 other isoform, or with tags, fused parts or gaps): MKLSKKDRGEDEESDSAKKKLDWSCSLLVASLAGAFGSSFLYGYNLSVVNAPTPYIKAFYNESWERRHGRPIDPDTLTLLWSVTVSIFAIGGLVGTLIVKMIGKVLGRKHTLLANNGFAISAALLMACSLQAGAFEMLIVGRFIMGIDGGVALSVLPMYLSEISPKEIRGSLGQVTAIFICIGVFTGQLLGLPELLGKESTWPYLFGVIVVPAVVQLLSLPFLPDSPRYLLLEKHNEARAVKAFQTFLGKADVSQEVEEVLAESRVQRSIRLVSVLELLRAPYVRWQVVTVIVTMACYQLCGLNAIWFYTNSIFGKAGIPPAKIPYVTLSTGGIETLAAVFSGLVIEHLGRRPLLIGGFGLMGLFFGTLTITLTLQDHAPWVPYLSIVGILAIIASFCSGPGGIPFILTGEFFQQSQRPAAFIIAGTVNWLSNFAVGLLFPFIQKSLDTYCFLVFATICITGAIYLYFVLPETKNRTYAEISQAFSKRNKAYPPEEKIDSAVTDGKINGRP

Row | Compound | IC50 [µM]
1 | COc1c(F)cc(-c2ncc(CC(C)C)nc2-c2ccc(CCC(=O)O)cc2)cc1F [Example 150] | 0.102
2 | COc1c(F)cc(-c2ncc(CC(C)C)nc2-c2ccc(C(=O)O)c(Cl)c2)cc1F [Example 151] | 0.106
3 | CCCCc1cnc(-c2cc(F)c(OC)c(F)c2)c(-c2ccc(C(=O)O)c(C)c2)n1 [Example 152] | 0.059
4 | CCCCc1cnc(-c2cc(F)c(OC)c(F)c2)c(-c2ccc(CCC(=O)O)cc2)n1 [Example 153] | 0.102
